Test in all cases: Bliss excess, mean over the matrix (fraction); higher = more synergy
The test system of assay [1] is SISO (Cervical Carcinoma). In short, it runs like this: (§1)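 Cell lines grown in DMEM/F12 or RPMI with 10% FBS were plated in 1536-well plates and held 24 hours at 37°C, 5% CO2 before 72 hours of exposure to two-drug dose matrices, with DMSO typically at 0.2%. CellTiter-Glo 2.0 luminescence gave viability, which was converted to inhibition. Vehicle wells were set to 0 and blank wells to 1. Combination Emax is the second-highest inhibition in the matrix, and Bliss excess is the observed combination effect minus the expected EA + EB − EA·EB, where EA and EB are the single-agent effects.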

For assay [2], the system named is SK-MES-1 (Squamous Cell Lung Carcinoma). In short, it runs like this:
as §1

The test system of assay [3] is BICR22 (Oral Cavity Carcinoma). In short, it runs like this:
as §1

A further assay has as its system IGR-37 (Melanoma). An outline of the steps:
as §1

For the next assay, the system named is FU97 (Gastric Carcinoma). In short, it runs like this: as §1
Assay [4] has as its system JSC-1 (B-Cell Non-Hodgkin's Lymphoma). In short, it runs like this:
as §1

Assay [5] relates to SK-MG-1 (Low Grade Glioma). In short, it runs like this: as §1
The subject of assay [6] is NCI-H2141 (Small Cell Lung Carcinoma). In short, it runs like this:
as §1

The next assay concerns A498 (Kidney Carcinoma). An outline of the steps:
as §1

The next assay deals with 8-MG-BA (Glioblastoma). In short, it runs like this: as §1
The test system of another assay is U-2-OS (Osteosarcoma). An outline of the steps: as §1
The test system of assay [7] is KARPAS-422 (B-Cell Non-Hodgkin's Lymphoma). In short, it runs like this:
as §1

The next assay has as its system NCI-H2591 (Mesothelioma). An outline of the steps:
as §1

The test system of assay [8] is CAL-29 (Bladder Carcinoma). In short, it runs like this:
as §1

The test system of another assay is ARH-77 (Non-Cancerous). An outline of the steps: as §1
Assay [9] concerns NCI-H1650 (Lung Adenocarcinoma). An outline of the steps: as §1
For assay [10], the system named is HCC1954 (Breast Carcinoma). In short, it runs like this: as §1
For assay [11], the system named is ONS-76 (Other Solid Carcinomas). In short, it runs like this:
as §1

A further assay deals with LN-405 (Glioblastoma). An outline of the steps:
as §1

Assay [12] concerns OS-RC-2 (Kidney Carcinoma). In short, it runs like this: as §1

Structures are written as SMILES.

With `CN(CCO)CC[C@H](CSc1ccccc1)Nc1ccc(S(=O)(=O)NC(=O)c2ccc(N3CCC([C@@H](O)c4ccccc4-c4ccc(Cl)cc4)CC3)cc2)cc1S(=O)(=O)C(F)(F)F` [AZD4320] + CCN(CCO)CCCOc1ccc2c(Nc3cc(CC(=O)Nc4cccc(F)c4)[nH]n3)ncnc2c1 [AZD2811] (first compound max 1 µM, 7x7, partner max 1 µM), the Bliss excess was 0.0049 in assay [1]; -0.0328 in assay [2]; 0.0119 in assay [3]; -0.0204 in the assay with IGR-37 (Melanoma); -0.0531 in the assay with FU97 (Gastric Carcinoma); 0.0215 in assay [4]. Further, the Bliss excess in [5] was 0.0981; in [6], 0.0443; in the assay on A498 (Kidney Carcinoma), -0.0371; with 8-MG-BA (Glioblastoma) it was 0.003; in the assay with U-2-OS (Osteosarcoma) it was 0.0076; in assay [7], 0.14. The Bliss excess in the assay with NCI-H2591 (Mesothelioma) is 0.0015; in [8], 0.103; in the assay on ARH-77 (Non-Cancerous), 0.0992; in [9], -0.0164; in assay [10], 0.149; in assay [11], 0.0817. Further, the Bliss excess in the assay on LN-405 (Glioblastoma) was 0.014; in assay [12] it was -0.0659.

Take `CN(CCO)CC[C@H](CSc1ccccc1)Nc1ccc(S(=O)(=O)NC(=O)c2ccc(N3CCC([C@@H](O)c4ccccc4-c4ccc(Cl)cc4)CC3)cc2)cc1S(=O)(=O)C(F)(F)F` [AZD4320] + CN(C)CCCOc1ccc(-c2ccc3ncc4c(c3c2)n(C2CCOCC2)c(=O)n4C)cn1 [AZD0156] (first compound max 1 µM, 7x7, partner max 1 µM): the Bliss excess in assay [1] was -0.0343; in assay [2], -0.005; in assay [3], -0.0364; with IGR-37 (Melanoma) it was -0.0148; with FU97 (Gastric Carcinoma) it was -0.0303; in assay [4] it was -0.0076. The Bliss excess in assay [5] was -0.0377; in assay [6] it was -0.0151; in the assay with A498 (Kidney Carcinoma), -0.0358; with 8-MG-BA (Glioblastoma) it was -0.0146; in the assay on U-2-OS (Osteosarcoma), -0.0215; in assay [7], 0.0093. For the same molecule, the Bliss excess in the assay on NCI-H2591 (Mesothelioma) was -0.0508; in assay [8] it was -0.0187; in the assay on ARH-77 (Non-Cancerous), -0.0283; in assay [9] it was -0.0443; in assay [10], 0.0526; in [11], -0.0494. Moreover, the Bliss excess in the assay on LN-405 (Glioblastoma) was 0.0093; in assay [12], -0.0706.

Take `CN(CCO)CC[C@H](CSc1ccccc1)Nc1ccc(S(=O)(=O)NC(=O)c2ccc(N3CCC([C@@H](O)c4ccccc4-c4ccc(Cl)cc4)CC3)cc2)cc1S(=O)(=O)C(F)(F)F` [AZD4320] + C[C@@H](Nc1cc(F)cc(F)c1)c1cc(C(=O)N(C)C)cc2c(=O)cc(N3CCOCC3)oc12 [AZD8186] (first compound max 1 µM, 7x7, partner max 3 µM): the Bliss excess in assay [1] is 0.0326; in assay [2], 0.031; in assay [3], -0.0108; in the assay with IGR-37 (Melanoma), 0.029; with FU97 (Gastric Carcinoma) it was 0.0471; in assay [4], 0.0639. For the same molecule, the Bliss excess in assay [5] was -0.0189; in assay [6], 0.0326; with A498 (Kidney Carcinoma) it was 0.0903; with 8-MG-BA (Glioblastoma), -0.0301; in the assay with U-2-OS (Osteosarcoma), 0.007; in assay [7], 0.0234. Moreover, the Bliss excess with NCI-H2591 (Mesothelioma) is 0.0135; in assay [8], -0.0215; in the assay on ARH-77 (Non-Cancerous) it was 0.0067; in assay [9] it was 0.0346; in assay [10], 0.0622; in [11] it was 0.0221. In addition, the values for the Bliss excess (in the assay on LN-405 (Glioblastoma); in assay [12]) were -0.0504 and -0.0197, respectively.

Consider `CN(CCO)CC[C@H](CSc1ccccc1)Nc1ccc(S(=O)(=O)NC(=O)c2ccc(N3CCC([C@@H](O)c4ccccc4-c4ccc(Cl)cc4)CC3)cc2)cc1S(=O)(=O)C(F)(F)F` [AZD4320] + Cc1cc2ncnn2cc1Nc1ncc2c(n1)n(C1CCOCC1)c(=O)n2C [AZD7648] (first compound max 1 µM, 7x7, partner max 10 µM), for which the Bliss excess is -0.0328 in assay [1]; -0.0632 in [2]; -0.0054 in assay [3]; -0.0132 in the assay with IGR-37 (Melanoma); -0.0375 in the assay on FU97 (Gastric Carcinoma); -0.0113 in [4]. Moreover, the Bliss excess in [5] is -0.0239; in [6], 0.0109; in the assay on A498 (Kidney Carcinoma), -0.0393; in the assay on 8-MG-BA (Glioblastoma), -0.0188; in the assay on U-2-OS (Osteosarcoma), -0.0294; in [7] it was -0.0071. In addition, the Bliss excess in the assay on NCI-H2591 (Mesothelioma) was -0.0445; in [8] it was -0.0074; in the assay on ARH-77 (Non-Cancerous) it was 0.0238; in [9] it was -0.0227; in assay [10], 0.028; in [11] it was -0.0301. The Bliss excess with LN-405 (Glioblastoma) was 0.0012; in assay [12], -0.0524.

Consider `CN(CCO)CC[C@H](CSc1ccccc1)Nc1ccc(S(=O)(=O)NC(=O)c2ccc(N3CCC([C@@H](O)c4ccccc4-c4ccc(Cl)cc4)CC3)cc2)cc1S(=O)(=O)C(F)(F)F` [AZD4320] + Cn1cnc2c(F)c(Nc3ccc(Br)cc3Cl)c(C(=O)NOCCO)cc21 [Selumetinib] (first compound max 1 µM, 7x7, partner max 3 µM), for which the Bliss excess is 0.0504 in assay [1]; 0.0282 in [2]; -0.0468 in assay [3]; -0.0039 with IGR-37 (Melanoma); -0.011 with FU97 (Gastric Carcinoma); 0.0044 in [4]. For the same molecule, the Bliss excess was 0.102 in [5]; -0.008 in assay [6]; 0.0329 with A498 (Kidney Carcinoma); 0.0614 in the assay on 8-MG-BA (Glioblastoma); 0.0351 in the assay with U-2-OS (Osteosarcoma); -0.0387 in [7]. For the same molecule, the Bliss excess was 0.0309 in the assay on NCI-H2591 (Mesothelioma); 0.0826 in [8]; -0.0039 in the assay with ARH-77 (Non-Cancerous); 0.0245 in assay [9]; 0.0665 in assay [10]; 0.019 in assay [11]. For the same molecule, the Bliss excess with LN-405 (Glioblastoma) is -0.061; in [12] it was 0.0178.

Regarding `COc1nnc2ccc(N3CCC(c4ccc(OCCN5CCN(C)C(=O)[C@H]5C)cc4)CC3)nn12` [AZD5153] + C=CCn1c(=O)c2cnc(Nc3ccc(N4CCN(C)CC4)cc3)nc2n1-c1cccc(C(C)(C)O)n1 [AZD1775] (first compound max 1 µM, partner max 1 µM), the Bliss excess is -0.0346 in assay [1]; 0.0183 in assay [2]; -0.0972 in assay [3]; -0.0569 in the assay on IGR-37 (Melanoma); 0.0072 with FU97 (Gastric Carcinoma); -0.123 in assay [4]. For the same molecule, the Bliss excess is -0.0823 in [5]; -0.021 in assay [6]; 0.0142 with A498 (Kidney Carcinoma); -0.0571 in the assay on 8-MG-BA (Glioblastoma); -0.0304 in the assay with U-2-OS (Osteosarcoma); -0.108 in assay [7]. The Bliss excess in the assay with NCI-H2591 (Mesothelioma) is 0.0145; in [8], -0.0699; in the assay with ARH-77 (Non-Cancerous), -0.066; in assay [9], -0.015; in [10], -0.0383; in assay [11] it was -0.0505. The Bliss excess in the assay on LN-405 (Glioblastoma) is -0.042; in [12] it was -0.0324.

The values above are taken from the supplement of paper PMC11061612.
